In patent US20250082717A1, “COMPOSITIONS FOR TREATING KIDNEY DISEASE” (RHYTHM PHARMACEUTICALS, INC., priority 2018, published 2025):
“Also recorded” adds a separate entry of the source.

Legend:
[1] = system: BBS10^−/− mice on high-fat/high-glucose diet; test: Escalating setmelanotide dosing study over 10 days, plasma leptin by ELISA; assay type: in vivo; conditions: obese BBS10^−/− mice on HF/HG diet; escalating doses 0.05-1.25 mg/kg over 10 days; disproportionate from body weight loss
Description: (§1) In order to assess the effect of setmelanotide on plasma leptin levels disproportionate from body weight loss, BBS10^−/− and wild type mice were fed a high fat/high glucose diet from weaning and body weight assessed on a weekly basis. At four months of age, mice were transferred to metabolic cages and acclimated for 3 days. An escalating setmelanotide dosing study over 10-days was conducted in accordance with regimen shown below in Table 1:
(§2) At the completion of the study, mice were sacrificed and blood and kidney collected for analysis of circulating leptin concentration and IL-23 mRNA expression, respectively. Plasma leptin concentrations were determined using a leptin ELISA kit (Catalog: #: EZML-82K, Millipore, Billerica, Massachusetts, USA). For analysis of renal IL-23 expression messenger RNA was extracted from tissue samples using TRIzol® reagent (#15596-018, Life Technologies, USA). […] The real-time quantitative PCR reaction was performed in a C1000™ thermocycler (CFX96, Real-Time System, BioRad, USA) using SYBR® Green. […] Results were analyzed with the CFX Manager™ software (BioRad, USA). Gene expression quantification was assessed by reporting measured levels relative to Gapdh expression in each separate sample.

[2] = system: BBS10^−/− mice on high-fat/high-glucose diet; test: Escalating setmelanotide dosing study over 10 days, renal IL-23 mRNA expression by real-time quantitative PCR; assay type: in vivo; conditions: obese BBS10^−/− mice on HF/HG diet; escalating doses 0.05-1.25 mg/kg over 10 days; relative to Gapdh
Description: as §1, §2

BBS10^−/− mice = test: Setmelanotide daily for one week, body weight and plasma and urine biomarker levels; assay type: in vivo
Description: In order to assess the effect of setmelanotide on body weight and the levels of certain biomarkers, BBS10^−/− mice were administered setmelanotide (1.25 mg/kg) daily for one week. […] However, setmelanotide treatment did result in an increase in urine calcium levels as well as an increase in urine creatine levels (FIG. 4).
Additional studies in these mice entailed measurement of blood plasma levels of the biomarkers leptin and adiponectin after treatment with setmelanotide (1.25 mg/kg). […] Further, the leptin: adiponectin ration was decreased in setmelanotide treated mice.

[3] = clinical trials (Chen et al. J. Clin. Endocrinol. Metab. 2015); cited from earlier work

## CC(=O)N[C@@H](CCCNC(=N)N)C(=O)N[C@H]1CSSC[C@@H](C(N)=O)NC(=O)[C@H](Cc2c[nH]c3ccccc23)NC(=O)[C@H](CCCNC(=N)N)NC(=O)[C@@H](Cc2ccccc2)NC(=O)[C@H](Cc2cnc[nH]2)NC(=O)[C@@H](C)NC1=O [setmelanotide, Ac-Arg-c (Cys-D-Ala-His-D-Phe-Arg-Trp-Cys)-NH2]
[1]
  plasma leptin levels: lowers; also recorded: decrease
[2]
  renal IL-23 mRNA expression: lowers; also recorded: normalization
BBS10^−/− mice; 1.25 mg/kg daily for one week
  body weight: Lowered
  urine calcium levels: increase
BBS10^−/− mice; 1.25 mg/kg daily for one week, FIG. 4
  urine creatine levels: increase
BBS10^−/− mice; 1.25 mg/kg, effect not seen in vehicle and pair-fed mice, FIG. 5A
  blood plasma levels of leptin: decreasing levels
BBS10^−/− mice; 1.25 mg/kg, effect not seen in vehicle and pair-fed mice, FIG. 5B
  blood plasma levels of adiponectin: increased levels
BBS10^−/− mice; 1.25 mg/kg, effect not seen in vehicle and pair-fed mice, FIG. 5C
  leptin: adiponectin ration: decreased
[3]
  effect on blood pressure: has not been shown to adversely affect blood pressure
